# Reference: US10201523B2, “Use of wilforlide A for overcoming chemotherapy resistance” (WESTERN UNIVERSITY OF HEALTH SCIENCES, priority 2013, dated 2019)
# Several values for one entry are separate records, joined by “and”; a condition that tells them apart may be missing. Equal values may be shown once.
# System: SkBr3-TxR
# Assay: SRB cell viability assay, lapatinib with/without wilforlide A pretreatment
# Type: cell-based
# Conditions: SkBr3-TxR; for A at 565 nm: background = 0.051
# [1] = no wilforlide A pre-Tx, lapatinib 0.01 μM 72 h
# [2] = no wilforlide A pre-Tx, lapatinib 0.2 μM 72 h
# [3] = no wilforlide A pre-Tx, lapatinib 0.67 μM 72 h
# [4] = no wilforlide A pre-Tx, lapatinib 2.0 μM 72 h
# [5] = no wilforlide A pre-Tx, lapatinib 6.7 μM 72 h
# [6] = no wilforlide A pre-Tx, lapatinib 20 μM 72 h
# [7] = wilforlide A 2.5 μg/ml pre-Tx, lapatinib 0.01 μM 72 h
# [8] = wilforlide A 2.5 μg/ml pre-Tx, lapatinib 0.067 μM 72 h
# [9] = wilforlide A 2.5 μg/ml pre-Tx, lapatinib 0.2 μM 72 h
# [10] = wilforlide A 2.5 μg/ml pre-Tx, lapatinib 0.67 μM 72 h
# [11] = wilforlide A 2.5 μg/ml pre-Tx, lapatinib 2.0 μM 72 h
# [12] = wilforlide A 2.5 μg/ml pre-Tx, lapatinib 6.7 μM 72 h
structure (smiles),measurement,setting,value
CS(=O)(=O)CCNCc1ccc(-c2ccc3ncnc(Nc4ccc(OCc5cccc(F)c5)c(Cl)c4)c3c2)o1 [lapatinib],viability at 0.001 µM,"72 h, no wilforlide A pre-Tx, lapatinib 0.001 μM 72 h",100%
same,viability at 0.01 µM,"72 h, no wilforlide A pre-Tx, lapatinib 0.01 μM 72 h",101%
same,viability at 0.067 µM,"72 h, no wilforlide A pre-Tx, lapatinib 0.067 μM 72 h",96.6%
same,viability at 0.2 µM,"72 h, no wilforlide A pre-Tx, lapatinib 0.2 μM 72 h",90%
same,viability at 0.67 µM,"72 h, no wilforlide A pre-Tx, lapatinib 0.67 μM 72 h",85.6%
same,viability at 2 µM,"72 h, no wilforlide A pre-Tx, lapatinib 2.0 μM 72 h",73.5%
same,viability at 6.7 µM,"72 h, no wilforlide A pre-Tx, lapatinib 6.7 μM 72 h",61.6%
same,viability at 20 µM,"72 h, no wilforlide A pre-Tx, lapatinib 20 μM 72 h",42.6%
same,viability at 0.001 µM,"72 h, wilforlide A 2.5 μg/ml pre-Tx, lapatinib 0.001 μM 72 h",100%
same,viability at 0.01 µM,"72 h, wilforlide A 2.5 μg/ml pre-Tx, lapatinib 0.01 μM 72 h",89%
same,viability at 0.067 µM,"72 h, wilforlide A 2.5 μg/ml pre-Tx, lapatinib 0.067 μM 72 h",77.2%
same,viability at 0.2 µM,"72 h, wilforlide A 2.5 μg/ml pre-Tx, lapatinib 0.2 μM 72 h",69.1%
same,viability at 0.67 µM,"72 h, wilforlide A 2.5 μg/ml pre-Tx, lapatinib 0.67 μM 72 h",59.5%
same,viability at 6.7 µM,"72 h, wilforlide A 2.5 μg/ml pre-Tx, lapatinib 6.7 μM 72 h",40.7%
same,viability at 20 µM,"72 h, wilforlide A 2.5 μg/ml pre-Tx, lapatinib 20 μM 72 h",31.1%
same,mean A,"no wilforlide A pre-Tx, lapatinib 0.001 μM 72 h",2.302
same,mean A,[1],2.322
same,A at 565 nm,[1],2.458
same,mean A,"no wilforlide A pre-Tx, lapatinib 0.067 μM 72 h",2.222
same,mean A,[2],2.071
same,A at 565 nm,[2],1.945
same,mean A,[3],1.970
same,A at 565 nm,[3],1.871 and 1.990 and 2.048
same,mean A,[4],1.692
same,A at 565 nm,[4],1.609 and 1.759 and 1.708
same,mean A,[5],1.418
same,A at 565 nm,[5],1.426 and 1.445 and 1.384
same,mean A,[6],0.980
same,A at 565 nm,[6],0.958 and 1.024 and 0.957
same,mean A,"wilforlide A 2.5 μg/ml pre-Tx, lapatinib 0.001 μM 72 h",2.265
same,mean A,[7],2.016
same,A at 565 nm,[7],1.817 and 1.976
same,mean A,[8],1.748
same,A at 565 nm,[8],1.344 and 1.909 and 1.992
same,mean A,[9],1.564
same,A at 565 nm,[9],1.299 and 1.540 and 1.854
same,mean A,[10],1.347
same,A at 565 nm,[10],1.127 and 1.398 and 1.517
same,mean A,[11],1.140
same,A at 565 nm,[11],0.987 and 1.095 and 1.339
same,mean A,[12],0.922
same,A at 565 nm,[12],0.794 and 0.932 and 1.040
same,A at 565 nm,"wilforlide A 2.5 μg/ml pre-Tx, lapatinib 20 μM 72 h",0.731 and 0.673 and 0.706
same,IC50,"wilforlide A 2.5 μg/ml pre-Tx, read-out: Drug IC50 after wilforlide A pre-Tx",886 nM
same,CE,"chemosensitization effect, wilforlide A 2.5 μg/ml pre-Tx",13
